Results as given in patent US20210228545A1, “METHODS OF TREATING CONDITIONS RELATED TO THE S1P1 RECEPTOR” (Arena Pharmaceuticals, Inc., priority 2018, published 2021).

Tests used:
[1] = spared nerve injury model; cited from earlier work
[2] = in vivo; cited from earlier work
[3] = mice; cited from earlier work
[4] = Phase II, relapsing-remitting multiple sclerosis; cited from earlier work
[5] = prophylactic oral 1 mg/kg, three times a week; cited from earlier work
[6] = murine; cited from earlier work
[7] = short-term high dose; cited from earlier work
CYP2C8 = target: T1, CYP2C8 (Homo sapiens, UniProt P10632); test: CYP reaction phenotyping in HLMs with selective chemical inhibitor; format: in vitro ADME
T1 construct: human liver microsomes from a pool of 200 individuals; from tissue; host or cells: human liver microsomes, pool of 200 individuals
T1 sequence (P10632 1-490): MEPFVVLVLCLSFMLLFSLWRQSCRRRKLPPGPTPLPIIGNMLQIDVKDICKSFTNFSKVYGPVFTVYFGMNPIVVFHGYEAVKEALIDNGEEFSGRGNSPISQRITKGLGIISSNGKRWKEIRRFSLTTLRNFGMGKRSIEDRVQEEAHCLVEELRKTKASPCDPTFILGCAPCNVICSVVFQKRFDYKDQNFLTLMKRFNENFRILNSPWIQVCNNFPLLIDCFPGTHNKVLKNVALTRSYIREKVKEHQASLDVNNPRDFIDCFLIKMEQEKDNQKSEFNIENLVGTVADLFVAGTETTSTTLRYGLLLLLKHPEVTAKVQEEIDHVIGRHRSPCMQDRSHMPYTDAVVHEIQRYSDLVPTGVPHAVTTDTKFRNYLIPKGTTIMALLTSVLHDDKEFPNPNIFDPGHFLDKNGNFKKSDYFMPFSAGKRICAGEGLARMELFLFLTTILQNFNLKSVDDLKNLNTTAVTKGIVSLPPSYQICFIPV

| Structure (SMILES) | Effect on nociceptive behavior [1] | Adverse event in clinical trials [2] | Effect on ovariectomy-induced osteoporosis [3] | Effect on MRI lesions and clinical disease activity [4] | Development of EAMG [5] | Effect on contact hypersensitivity [6] | Effect on ocular infiltrates [7] | Inhibition of conversion of Compound 1 to first oxidative metabolite (CYP2C8) | Inhibition of conversion of Compound 1 to ketone metabolite (CYP2C8) | Inhibition of conversion of Compound 1 to second oxidative metabolite (CYP2C8) |
| --- | --- | --- | --- | --- | --- | --- | --- | --- | --- | --- |
| CCCCCCCCc1ccc(CCC(N)(CO)CO)cc1 [FTY720] | reduce the nociceptive behavior | transient asymptomatic bradycardia | relieved ovariectomy-induced osteoporosis | reduce the number of lesions detected by magnetic resonance imaging (MRI) and clinical disease activity | completely prevented | impair initiation | rapidly reduced ocular infiltrates |  |  |  |
| Cc1ccc(C)c(OCCCC(C)(C)C(=O)O)c1 [gemfibrozil] |  |  |  |  |  |  |  | 85% | 60% | 47% |
